Test results taken from US10633419B2, “Immunomodulators” (BRISTOL-MYERS SQUIBB COMPANY, priority 2014, dated 2020).
Starred links: 1 amine or outer side, 2 acyl side, 3 side chain; linkers in the order of their positions; H or OH if unused. Positions of bridges follow the written chain, without caps; N, C: chain ends. Non-standard residues stand in square brackets, D forms with d. Residues, ends and D or L forms follow the SMILES beside them. Groups on a side chain read outwards from the residue. *: point of attachment. X6 = O=C(O)CCCCCCCCCCCCCCCCC(=O)N[C@@H](CCC(=O)NCCCOCCOCCOCCCN*)C(=O)O; CH3O(CH2CH2O)11CH2CH2CO = COCCOCCOCCOCCOCCOCCOCCOCCOCCOCCOCCOCCC(=O)*; X13 = O=C(O)CCCCCCCCCCCCCCC(=O)N[C@@H](CCC(=O)NCCCOCCOCCOCCCN*)C(=O)O; X4 = O=C(O)CCCCCCCCCCCCCCCCC(=O)N[C@@H](CC(=O)NCCCOCCOCCOCCCN*)C(=O)O; Trp(1-CH2COOH) = N[C@@H](Cc1cn(CC(=O)O)c2ccccc12)C(=O)O; NH(CH2)16COOH = O=C(O)CCCCCCCCCCCCCCCCN*; NH(CH2)14COOH = O=C(O)CCCCCCCCCCCCCCN*; γGlu = O=C(O)[C@H](CCC(=O)[*:2])N[*:1]; d(cisHyp) = O=C(O)[C@H]1C[C@@H](O)CN1; PEG6 = NCCOCCOCCOCCOCCOCCOCCC(=O)O; Palmitoyl = CCCCCCCCCCCCCCCC(=O)*; Hyp = O=C(O)[C@@H]1C[C@@H](O)CN1; NMeF = CN[C@@H](Cc1ccccc1)C(=O)O; Myristoyl = CCCCCCCCCCCCCC(=O)*; NMeE = CN[C@@H](CCC(=O)O)C(=O)O; dHyp = O=C(O)[C@H]1C[C@H](O)CN1; NMeNle = CCCC[C@H](NC)C(=O)O; Pip = O=C(O)[C@@H]1CCCCN1; NMeA = CN[C@@H](C)C(=O)O; Pra = C#CC[C@H](N)C(=O)O; Aun = NCCCCCCCCCCC(=O)O; Dab = NCC[C@H](N)C(=O)O; Dap = NC[C@H](N)C(=O)O; Sar = CNCC(=O)O

Biological target: T1, PD-L1 (Homo sapiens, UniProt Q9NZQ7)
T1 construct: hPDL1(19-239)-TVMV-His; made in house; host or cells: HEK293T
T1 sequence (Q9NZQ7 with tags, fused parts or gaps): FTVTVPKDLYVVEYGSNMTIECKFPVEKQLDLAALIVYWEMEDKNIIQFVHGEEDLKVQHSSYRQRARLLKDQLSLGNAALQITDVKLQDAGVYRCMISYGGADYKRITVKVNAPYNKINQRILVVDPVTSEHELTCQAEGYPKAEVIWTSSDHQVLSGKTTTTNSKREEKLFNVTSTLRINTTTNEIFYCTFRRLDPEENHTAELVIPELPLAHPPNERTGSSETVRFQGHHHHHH
Assay: PD-1/PD-L1 Homogenous Time-Resolved Fluorescence (HTRF) binding assay (PD-1-Ig/PD-L1-His)
Conditions: inhibition of PD-1-Ig binding to PD-L1-TVMV-His; value given as range class; read-out: HTRF IC50
In short: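 HTRF competition in dPBS with 0.1% BSA and 0.05% Tween-20: 20 nM PD-1-Ig added after 15 min compound pre-incubation with 10 nM PD-L1-His, then another 15 min. Signal (665/620 nm) after 30 min with APC anti-His (20 nM) and Eu anti-Ig (1 nM).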

Row | SMILES | IC50 [nM]
1 | CCCC[C@H]1C(=O)N(C)[C@@H](CCCC)C(=O)N[C@@H](CC(C)C)C(=O)N[C@H](C(=O)NCCCCCCCCCCC(=O)NCCCCCCCCCCC(=O)O)CSCC(=O)N[C@@H](Cc2ccc(O)cc2)C(=O)N(C)[C@@H](C)C(=O)N[C@@H](CC(N)=O)C(=O)N2CCC[C@H]2C(=O)N[C@@H](CN)C(=O)N[C@@H](CCC(N)=O)C(=O)N2C[C@H](O)C[C@H]2C(=O)N[C@@H](Cc2c[nH]c3ccccc23)C(=O)N[C@@H](CO)C(=O)N[C@@H](Cc2cn(CC(=O)O)c3ccccc23)C(=O)N1C [Example 11089] ({CH2CO}-Y[NMeA]NP[Dap]Q[Hyp]WS[Trp(1-CH2COOH)][NMeNle][NMeNle]LC[Aun][Aun]-OH; thioether N-14) | 10 to 99
2 | CCCC[C@H]1C(=O)N(C)[C@@H](CCCC)C(=O)N[C@@H](CC(C)C)C(=O)N[C@H](C(=O)NCCOCCOCCOCCOCCOCCOCCC(=O)O)CSCC(=O)N[C@@H](Cc2ccc(O)cc2)C(=O)N(C)[C@@H](C)C(=O)N[C@@H](CC(N)=O)C(=O)N2CCC[C@H]2C(=O)N[C@@H](CO)C(=O)N[C@@H](CCC(N)=O)C(=O)N2C[C@H](O)C[C@@H]2C(=O)N[C@@H](Cc2c[nH]c3ccccc23)C(=O)N[C@@H](CN)C(=O)N[C@@H](Cc2cn(CC(=O)O)c3ccccc23)C(=O)N1C [Example 11046] ({CH2CO}-Y[NMeA]NPSQ[d(cisHyp)]W[Dap][Trp(1-CH2COOH)][NMeNle][NMeNle]LC[PEG6]-OH; thioether N-14) | 10 to 99
3 | CCCC[C@H]1C(=O)N(C)[C@@H](CCCC)C(=O)N[C@@H](CC(C)C)C(=O)N[C@H](C(=O)NCCCCCCCCCCC(=O)N[C@@H](CC(=O)O)C(N)=O)CSCC(=O)N[C@@H](Cc2ccc(O)cc2)C(=O)N(C)[C@@H](C)C(=O)N[C@@H](CC(N)=O)C(=O)N2CCC[C@H]2C(=O)N[C@@H](Cc2cnc[nH]2)C(=O)N[C@@H](CCC(=O)O)C(=O)N2C[C@H](O)C[C@H]2C(=O)N[C@@H](Cc2c[nH]c3ccccc23)C(=O)N[C@@H](CCN)C(=O)N[C@@H](Cc2cn(CC(=O)O)c3ccccc23)C(=O)N1C [Example 11066] ({CH2CO}-Y[NMeA]NPHE[Hyp]W[Dab][Trp(1-CH2COOH)][NMeNle][NMeNle]LC[Aun]D-NH2; thioether N-14) | 0.3 to 9.9
4 | CCCCCCCCCCCCCCCC(=O)NCCCC[C@H](NC(=O)[C@H](CO)NC(=O)CNC(=O)[C@H](CO)NC(=O)CNC(=O)[C@@H]1CSCC(=O)N[C@@H](Cc2ccc(O)cc2)C(=O)N(C)[C@@H](C)C(=O)N[C@@H](CC(N)=O)C(=O)N2CCC[C@H]2C(=O)N[C@@H](CCN)C(=O)N[C@@H](CC(C)C)C(=O)N2C[C@H](O)C[C@H]2C(=O)N[C@@H](Cc2c[nH]c3ccccc23)C(=O)N[C@@H](CO)C(=O)N[C@@H](Cc2c[nH]c3ccccc23)C(=O)N(C)[C@@H](CCCC)C(=O)N(C)[C@@H](CCCC)C(=O)N[C@@H](CCCNC(=N)N)C(=O)N1)C(N)=O [Example 11023] ({CH2CO}-Y[NMeA]NP[Dab]L[Hyp]WSW[NMeNle][NMeNle]RCGSGSK(Palmitoyl)-NH2; thioether N-14) | 100 to 1600
5 | CCCC[C@H]1C(=O)N(C)CC(=O)N[C@@H](CC(=O)O)C(=O)N[C@@H](C(C)C)C(=O)N(C)[C@@H](Cc2ccccc2)C(=O)N[C@@H](Cc2ccc(O)cc2)C(=O)N(C)[C@@H](CCC(=O)O)C(=O)N[C@@H](Cc2c[nH]c3ccccc23)C(=O)N[C@@H](Cc2ccc(O)cc2)C(=O)N[C@@H](CC(C)C)C(=O)N[C@H](C(=O)NCC(=O)NCC(=O)NCC(=O)N[C@@H](CCCCNC(=O)CCOCCOCCOCCOCCOCCOCCOCCOCCOCCOCCOCCOC)C(N)=O)CSCC(=O)N[C@@H](Cc2ccccc2)C(=O)N(C)[C@@H](Cc2ccccc2)C(=O)N1C [Example 3621] ({CH2CO}-F[NMeF][NMeNle][Sar]DV[NMeF]Y[NMeE]WYLCGGGK(CH3O(CH2CH2O)11CH2CH2CO)-NH2; thioether N-13) | 10 to 99

Next, values leading:

Row | IC50 [nM] | SMILES
6 | 100 to 1600 | CCCC[C@H]1C(=O)N(C)[C@@H](CCCC)C(=O)N[C@@H](CC(C)C)C(=O)N[C@H](C(=O)NCC(=O)N[C@@H](CC(=O)O)C(=O)NCCCOCCOCCOCCCNC(=O)CC[C@H](NC(=O)CCCCCCCCCCCCCCC(=O)O)C(=O)O)CSCC(=O)N[C@@H](Cc2ccc(O)cc2)C(=O)N(C)[C@@H](C)C(=O)N[C@@H](CC(N)=O)C(=O)N2CCC[C@H]2C(=O)N[C@@H](CN)C(=O)N[C@@H](CC(C)C)C(=O)N2C[C@H](O)C[C@@H]2C(=O)N[C@@H](Cc2c[nH]c3ccccc23)C(=O)N[C@@H](CCN)C(=O)N[C@@H](Cc2cn(CC(=O)O)c3ccccc23)C(=O)N1C [Example 11162] ({CH2CO}-Y[NMeA]NP[Dap]L[d(cisHyp)]W[Dab][Trp(1-CH2COOH)][NMeNle][NMeNle]LCGD-X13; thioether N-14)
7 | 0.3 to 9.9 | C#CC[C@H](NC(=O)CNC(=O)[C@@H]1CSCC(=O)N[C@@H](Cc2ccc(O)cc2)C(=O)N2CCCC[C@H]2C(=O)N[C@@H](CC(N)=O)C(=O)N2CCC[C@H]2C(=O)N[C@@H](CN)C(=O)N[C@@H](CC(C)C)C(=O)N2C[C@H](O)C[C@H]2C(=O)N[C@@H](Cc2c[nH]c3ccccc23)C(=O)N[C@@H](CCN)C(=O)N[C@@H](Cc2cn(CC(=O)O)c3ccccc23)C(=O)N(C)[C@@H](CCCC)C(=O)N(C)[C@@H](CCCC)C(=O)N[C@@H](CC(C)C)C(=O)N1)C(=O)O [INT130AI] ({CH2CO}-Y[Pip]NP[Dap]L[Hyp]W[Dab][Trp(1-CH2COOH)][NMeNle][NMeNle]LCG[Pra]-OH; thioether N-14)
8 | 10 to 99 | CCCC[C@H]1C(=O)N(C)[C@@H](CCCC)C(=O)N[C@@H](CC(C)C)C(=O)N[C@H](C(=O)NCC(=O)N[C@H](CC(=O)O)C(=O)NCCCCCCCCCCCCCCCCC(=O)O)CSCC(=O)N[C@@H](Cc2ccc(O)cc2)C(=O)N(C)[C@@H](C)C(=O)N[C@@H](CC(N)=O)C(=O)N2CCC[C@H]2C(=O)N[C@@H](CN)C(=O)N[C@@H](CC(C)C)C(=O)N2C[C@H](O)C[C@H]2C(=O)N[C@@H](Cc2c[nH]c3ccccc23)C(=O)N[C@@H](CCN)C(=O)N[C@@H](Cc2cn(CC(=O)O)c3ccccc23)C(=O)N1C [Example 11190] ({CH2CO}-Y[NMeA]NP[Dap]L[Hyp]W[Dab][Trp(1-CH2COOH)][NMeNle][NMeNle]LCG[dD]-{NH(CH2)16COOH}; thioether N-14)
9 | 100 to 1600 | CCCCCCCCCCCCCCCCNC(=O)CCCCCCCCCCNC(=O)[C@@H]1CSCC(=O)N[C@@H](Cc2ccc(O)cc2)C(=O)N(C)[C@@H](C)C(=O)N[C@@H](CC(N)=O)C(=O)N2CCC[C@H]2C(=O)N[C@@H](Cc2cnc[nH]2)C(=O)N[C@@H](CC(C)C)C(=O)N2C[C@H](O)C[C@H]2C(=O)N[C@@H](Cc2c[nH]c3ccccc23)C(=O)N[C@@H](CO)C(=O)N[C@@H](Cc2c[nH]c3ccccc23)C(=O)N(C)[C@@H](CCCC)C(=O)N(C)[C@@H](CCCC)C(=O)N[C@@H](CCCNC(=N)N)C(=O)N1 [Example 11115]
10 | 10 to 99 | CCCC[C@H]1C(=O)N(C)[C@@H](CCCC)C(=O)N[C@@H](CC(C)C)C(=O)N[C@@H](C(=O)NCC(=O)N[C@@H](CC(=O)O)C(=O)NCCCOCCOCCOCCCNC(=O)C[C@H](NC(=O)CCCCCCCCCCCCCCCCC(=O)O)C(=O)O)CSCC(=O)N[C@@H](Cc2ccc(O)cc2)C(=O)N(C)[C@@H](C)C(=O)N[C@@H](CC(N)=O)C(=O)N2CCC[C@@H]2C(=O)N[C@@H](CN)C(=O)N[C@@H](CC(C)C)C(=O)N2C[C@@H](O)C[C@@H]2C(=O)N[C@@H](Cc2c[nH]c3ccccc23)C(=O)N[C@@H](CCN)C(=O)N[C@@H](Cc2cn(CC(=O)O)c3ccccc23)C(=O)N1C [Example 11237] ({CH2CO}-Y[NMeA]N[dP][Dap]L[dHyp]W[Dab][Trp(1-CH2COOH)][NMeNle][NMeNle]L[dC]GD-X4; thioether N-14)
11 | 10 to 99 | CCCC[C@H]1C(=O)N(C)[C@@H](CCCC)C(=O)N[C@@H](CC(C)C)C(=O)N[C@H](C(=O)NCC(=O)NCC(=O)NCCCCCCCCCCCCCCC(=O)O)CSCC(=O)N[C@@H](Cc2ccc(O)cc2)C(=O)N(C)[C@@H](C)C(=O)N[C@@H](CC(N)=O)C(=O)N2CCC[C@H]2C(=O)N[C@@H](CN)C(=O)N[C@@H](CC(C)C)C(=O)N2C[C@H](O)C[C@H]2C(=O)N[C@@H](Cc2c[nH]c3ccccc23)C(=O)N[C@@H](CCN)C(=O)N[C@@H](Cc2cn(CC(=O)O)c3ccccc23)C(=O)N1C [Example 11194] ({CH2CO}-Y[NMeA]NP[Dap]L[Hyp]W[Dab][Trp(1-CH2COOH)][NMeNle][NMeNle]LCGG-{NH(CH2)14COOH}; thioether N-14)
12 | 10 to 99 | CCCCCCCCCCCCCC(=O)N[C@@H](CCC(=O)NCCCC[C@H](NC(=O)CNC(=O)CNC(=O)CNC(=O)[C@@H]1CSCC(=O)N[C@@H](Cc2ccc(O)cc2)C(=O)N(C)[C@@H](C)C(=O)N[C@@H](CC(N)=O)C(=O)N2CCC[C@H]2C(=O)N[C@@H](Cc2cnc[nH]2)C(=O)N[C@@H](CC(C)C)C(=O)N2C[C@H](O)C[C@H]2C(=O)N[C@@H](Cc2c[nH]c3ccccc23)C(=O)N[C@@H](CO)C(=O)N[C@@H](Cc2c[nH]c3ccccc23)C(=O)N(C)[C@@H](CCCC)C(=O)N(C)[C@@H](CCCC)C(=O)N[C@@H](CCCNC(=N)N)C(=O)N1)C(N)=O)C(=O)O [Example 11116] ({CH2CO}-Y[NMeA]NPHL[Hyp]WSW[NMeNle][NMeNle]RCGGGK([γGlu-Myristoyl])-NH2; thioether N-14)
13 | 100 to 1600 | CCCC[C@H]1C(=O)N(C)[C@@H](CCCC)C(=O)N[C@@H](CC(C)C)C(=O)N[C@H](C(=O)NCC(=O)N[C@@H](CC(=O)O)C(=O)NCCCOCCOCCOCCCNC(=O)CC[C@H](NC(=O)CCCCCCCCCCCCCCCCC(=O)O)C(=O)O)CSCC(=O)N[C@@H](Cc2ccc(O)cc2)C(=O)N(C)[C@@H](C)C(=O)N[C@@H](CC(N)=O)C(=O)N2CCC[C@H]2C(=O)N[C@@H](CN)C(=O)N[C@@H](CC(C)C)C(=O)N2C[C@H](O)C[C@@H]2C(=O)N[C@@H](Cc2c[nH]c3ccccc23)C(=O)N[C@@H](CCN)C(=O)N[C@@H](Cc2cn(CC(=O)O)c3ccccc23)C(=O)N1C [Example 11166] ({CH2CO}-Y[NMeA]NP[Dap]L[d(cisHyp)]W[Dab][Trp(1-CH2COOH)][NMeNle][NMeNle]LCGD-X6; thioether N-14)
